Measurements: patent US11072598B2, “Somatostatin modulators and uses thereof” (CRINETICS PHARMACEUTICALS, INC., priority 2017, dated 2021)

Assays:
[1] = molecular target: T1, human somatostatin receptor subtype 2 (Homo sapiens, UniProt P30874); experiment: cAMP functional assay for SSTR2 agonists; assay type: cell-based; conditions: inhibition of cAMP activities via human SST2 receptor (SSTR2), CHO-K1 cells; read-out: EC50
T1 construct: expressed in transfected cells
Method in brief: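 CHO-K1 cells stably expressing human SSTR2 were treated for 20 min at 37 °C with compound plus NKH477 (added as 1.6 μM) in HBSS with IBMX. Intracellular cAMP was measured by HTRF against a standard curve. EC50 values came from concentration-response curves.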

hSSTR4 = molecular target: T2, hSSTR4 (Homo sapiens, UniProt P31391); experiment: inhibition of cAMP via hSSTR4; assay type: cell-based; conditions: selectivity for inhibition of cAMP via hSSTR2 vs. hSSTR4
T2 construct: expressed in transfected cells
Text: General overview: All five SSTR subtypes are Gi coupled G-protein coupled receptors (GPCRs) that lead to decreases in intracellular cyclic AMP (cAMP) when activated by an agonist. Therefore, measurement of intracellular cAMP levels can be used to assess whether compounds of the invention are agonists of SSTR subtypes (John Kelly, Troy Stevens, W. Joseph Thompson, and Roland Seifert, Current Protocols in Pharmacology, 2005, 2.2.1-2.2). One example of an intracellular cAMP assay is described below. cAMP assay protocol:
Four days prior to the assay, 5,000 Chinese hamster ovary cells (CHO-K1, ATCC #CCL-61) stably expressing the human somatostatin receptor subtype 2 are plated in each well of a 96-well tissue culture-treated plate in Ham's F12 growth media (ThermoFisher #10-080-CM) supplemented with 10% donor bovine serum (Gemini Bio-Products #100-506), 100 U/mL penicillin; 100 ug/mL streptomycin; 2 mM L-glutamine (Gemini Bio-Products #400-110) and 0.2 mg/mL hygromycin B (GoldBio #31282-04-9). The cells are cultured at 37° C., 5% CO2 and 95% humidity. On the day of the assay, the media is aspirated and the cells are treated with 50 μL of 1.6 μM NKH477 (Sigma #N3290) plus various dilutions of compounds of the invention in assay buffer [1× Hank's Balanced Salt Solution (ThermoFisher #SH3058802), 0.5 mM HEPES pH 7.4, 0.1% bovine serum albumin, 0.2 mM 3-Isobutyl-1-methylxanthine (IBMX, VWR #200002-790)]. The cells are incubated for 20 minutes at 37° C. (the final concentration of the compounds of the invention are typically 0-10,000 nM). The cells are treated with 50 μL of lysis buffer (HRTF cAMP kit, Cisbio). The lysate is transferred to 384-well plates and cAMP detection and visualization antibodies are added and incubated for 1-24 hours at room temperature. The time-resolved fluorescent signal is read with a Tecan M1000Pro multiplate reader. The intracellular cAMP concentrations are calculated by regression to a standard curve and are plotted vs. the concentration of the compounds of the invention and the EC50 of the compounds are calculated using standard methods. All data manipluations are in GraphPad Prism v6.

T2 sequence (P31391 whole entry): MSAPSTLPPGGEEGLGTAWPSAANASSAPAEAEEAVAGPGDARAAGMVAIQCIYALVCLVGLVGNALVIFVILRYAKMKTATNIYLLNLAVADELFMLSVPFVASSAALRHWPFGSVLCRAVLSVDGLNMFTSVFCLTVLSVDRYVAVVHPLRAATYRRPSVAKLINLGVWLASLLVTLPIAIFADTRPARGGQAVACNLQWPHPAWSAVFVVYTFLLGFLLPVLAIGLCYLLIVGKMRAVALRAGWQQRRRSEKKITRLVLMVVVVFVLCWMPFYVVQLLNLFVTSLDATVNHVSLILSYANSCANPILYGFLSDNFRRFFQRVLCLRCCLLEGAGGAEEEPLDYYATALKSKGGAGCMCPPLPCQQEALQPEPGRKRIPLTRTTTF
T1 sequence (P30874 whole entry): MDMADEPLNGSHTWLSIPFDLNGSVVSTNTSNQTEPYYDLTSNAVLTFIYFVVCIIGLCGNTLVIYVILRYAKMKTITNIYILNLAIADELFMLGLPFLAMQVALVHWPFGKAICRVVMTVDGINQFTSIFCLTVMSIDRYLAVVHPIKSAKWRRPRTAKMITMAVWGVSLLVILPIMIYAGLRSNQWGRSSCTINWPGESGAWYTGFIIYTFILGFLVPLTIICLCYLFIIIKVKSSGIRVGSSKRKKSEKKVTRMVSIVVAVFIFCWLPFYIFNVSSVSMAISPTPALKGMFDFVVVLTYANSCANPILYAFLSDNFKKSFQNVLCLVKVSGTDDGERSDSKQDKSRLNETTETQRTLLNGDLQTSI

SMILES	EC50 [1] [nM]	hSST4/hSST2 (ratio) (hSSTR4)
Cc1cc(F)cc(-c2cnc(N)c(-c3nc4cc(F)c(F)cc4[nH]3)c2N2CCC(N)CC2)c1 [Compound 1-3, 4-(4-aminopiperidin-1-yl)-3-(5,6-difluoro-1H-1,3-benzodiazol-2-yl)-5-(3-fluoro-5-methylphenyl)pyridin-2-amine]	< 10	b (between 15 and 50)
CCn1c(-c2c(N)ncc(-c3cc(C)cc(F)c3)c2N2CCC(N)CC2)nc2cc(F)c(F)cc21 [Compound 1-5, 4-(4-aminopiperidin-1-yl)-3-(1-ethyl-5,6-difluoro-1H-1,3-benzodiazol-2-yl)-5-(3-fluoro-5-methylphenyl)pyridin-2-amine]	< 10	b (between 15 and 50)
Cc1cc(F)cc(-c2cnc(N)c(-c3nc4cccc(C)c4[nH]3)c2N2CCC(N)CC2)c1 [Compound 1-10, 4-(4-aminopiperidin-1-yl)-5-(3-fluoro-5-methylphenyl)-3-(7-methyl-1H-1,3-benzodiazol-2-yl)pyridin-2-amine]	< 10	c (between 2.5 and 15)
CCNc1ncc(-c2cc(C)cc(F)c2)c(N2CCC(N)CC2)c1-c1nc2cc(F)cc(F)c2[nH]1 [Compound 1-49, 4-(4-aminopiperidin-1-yl)-3-(5,7-difluoro-1H-1,3-benzodiazol-2-yl)-N-ethyl-5-(3-fluoro-5-methylphenyl)pyridin-2-amine]	< 10	a (above 50)
CCNc1ncc(-c2cc(C)cc(F)c2)c(N2CCC(N)CC2)c1-c1nc2cc(F)c(F)cc2[nH]1 [Compound 1-50, 4-(4-aminopiperidin-1-yl)-3-(5,6-difluoro-1H-1,3-benzodiazol-2-yl)-N-ethyl-5-(3-fluoro-5-methylphenyl)pyridin-2-amine]	< 10	a (above 50)
Cc1cc(F)cc(-c2cnc(N)c(-c3nc4cc(Cl)cc(F)c4[nH]3)c2N2CCC(N)CC2)c1 [Compound 1-54, 4-(4-aminopiperidin-1-yl)-3-(5-chloro-7-fluoro-1H-1,3-benzodiazol-2-yl)-5-(3-fluoro-5-methylphenyl)pyridin-2-amine]	< 10	a (above 50)
CNc1ncc(-c2cc(C)cc(F)c2)c(N2CCC(N)CC2)c1-c1nc2cc(F)c(F)cc2[nH]1 [Compound 1-55, 4-(4-aminopiperidin-1-yl)-3-(5,6-difluoro-1H-1,3-benzodiazol-2-yl)-5-(3-fluoro-5-methylphenyl)-N-methylpyridin-2-amine]	< 10	a (above 50)
COCCNc1ncc(-c2cc(C)cc(F)c2)c(N2CCC(N)CC2)c1-c1nc2c(F)cc(F)cc2[nH]1 [Compound 1-56]	< 10	a (above 50)
Cc1cc(F)cc(-c2cnc(N)c(-c3nc4cc(F)c(F)cc4n3C)c2N2CCC(N)CC2)c1 [Compound 1-57, 4-(4-aminopiperidin-1-yl)-3-(5,6-difluoro-1-methyl-1H-1,3-benzodiazol-2-yl)-5-(3-fluoro-5-methylphenyl)pyridin-2-amine]	< 10	a (above 50)
COc1cc(F)cc2[nH]c(-c3c(N)ncc(-c4cc(C)cc(F)c4)c3N3CCC(N)CC3)nc12 [Compound 1-58, 4-(4-aminopiperidin-1-yl)-3-(6-fluoro-4-methoxy-1H-1,3-benzodiazol-2-yl)-5-(3-fluoro-5-methylphenyl)pyridin-2-amine]	< 10	c (between 2.5 and 15)
Cc1cc(F)cc(-c2cnc(N)c(-c3nc4cc(F)cc(OCC#N)c4[nH]3)c2N2CCC(N)CC2)c1 [Compound 1-74, 2-({2-[2-amino-4-(4-aminopiperidin-1-yl)-5-(3-fluoro-5-methylphenyl)pyridin-3-yl]-5-fluoro-1H-1,3-benzodiazol-7-yl}oxy)acetonitrile]	< 10	c (between 2.5 and 15)
CNc1ncc(-c2cc(C)cc(F)c2)c(N2CCC(N)CC2)c1-c1nc2cc(Cl)cc(F)c2[nH]1 [Compound 1-75, 4-(4-aminopiperidin-1-yl)-3-(5-chloro-7-fluoro-1H-1,3-benzodiazol-2-yl)-5-(3-fluoro-5-methylphenyl)-N-methylpyridin-2-amine]	< 10	a (above 50)
COc1cc(F)cc2nc(-c3c(C)ncc(-c4cc(C)cc(F)c4)c3N3CCC(N)CC3)[nH]c12 [Compound 2-15, 1-[3-(5-fluoro-7-methoxy-1H-1,3-benzodiazol-2-yl)-5-(3-fluoro-5-methylphenyl)-2-methylpyridin-4-yl]piperidin-4-amine]	< 10	c (between 2.5 and 15)

The remaining lines, values ahead:

EC50 [1] [nM]	hSST4/hSST2 (ratio) (hSSTR4)	SMILES
< 10	b (between 15 and 50)	COc1ccc2[nH]c(-c3c(N)ncc(-c4cc(C)cc(F)c4)c3N3CCC(N)CC3)nc2c1 [Compound 1-8, 4-(4-aminopiperidin-1-yl)-5-(3-fluoro-5-methylphenyl)-3-(5-methoxy-1H-1,3-benzodiazol-2-yl)pyridin-2-amine]
< 10	a (above 50)	Cc1cc(F)cc(-c2cnc(N)c(-c3nc4cc(OC(F)(F)F)ccc4[nH]3)c2N2CCC(N)CC2)c1 [Compound 1-14, 4-(4-aminopiperidin-1-yl)-5-(3-fluoro-5-methylphenyl)-3-[5-(trifluoromethoxy)-1H-1,3-benzodiazol-2-yl]pyridin-2-amine]
< 10	a (above 50)	CNc1ncc(-c2cc(C)cc(F)c2)c(N2CCC(N)CC2)c1-c1nc2cc(Cl)ccc2[nH]1 [Compound 1-28, 4-(4-aminopiperidin-1-yl)-3-(5-chloro-1H-1,3-benzodiazol-2-yl)-5-(3-fluoro-5-methylphenyl)-N-methylpyridin-2-amine]
< 10	a (above 50)	CCNc1ncc(-c2cc(C)cc(F)c2)c(N2CCC(N)CC2)c1-c1nc2cc(Cl)ccc2[nH]1 [Compound 1-30, 4-(4-aminopiperidin-1-yl)-3-(5-chloro-1H-1,3-benzodiazol-2-yl)-N-ethyl-5-(3-fluoro-5-methylphenyl)pyridin-2-amine]
< 10	b (between 15 and 50)	COc1cc(F)c2nc(-c3c(N)ncc(-c4cc(C)cc(F)c4)c3N3CCC(N)CC3)[nH]c2c1 [Compound 1-59, 4-(4-aminopiperidin-1-yl)-5-(3-fluoro-5-methylphenyl)-3-(4-fluoro-6-methoxy-1H-1,3-benzodiazol-2-yl)pyridin-2-amine]
< 10	c (between 2.5 and 15)	CNc1ncc(-c2cc(C)cc(F)c2)c(N2CCC(N)CC2)c1-c1nc2cccc(OC)c2[nH]1 [Compound 1-71, 4-(4-aminopiperidin-1-yl)-5-(3-fluoro-5-methylphenyl)-3-(7-methoxy-1H-1,3-benzodiazol-2-yl)-N-methylpyridin-2-amine]
< 10	a (above 50)	COc1ncc(-c2cc(C)cc(F)c2)c(N2CCC(N)CC2)c1-c1nc2cc(F)ccc2[nH]1 [Compound 2-1, 1-[3-(5-fluoro-1H-1,3-benzodiazol-2-yl)-5-(3-fluoro-5-methylphenyl)-2-methoxypyridin-4-yl]piperidin-4-amine]
< 10	a (above 50)	COc1ncc(-c2cc(C)cc(F)c2)c(N2CCC(N)CC2)c1-c1nc2cc(Cl)ccc2[nH]1 [Compound 2-2, 1-[3-(5-chloro-1H-1,3-benzodiazol-2-yl)-5-(3-fluoro-5-methylphenyl)-2-methoxypyridin-4-yl]piperidin-4-amine]
< 10	a (above 50)	COc1ccc2[nH]c(-c3c(OC)ncc(-c4cc(C)cc(F)c4)c3N3CCC(N)CC3)nc2c1 [Compound 2-3, 1-[5-(3-fluoro-5-methylphenyl)-2-methoxy-3-(5-methoxy-1H-1,3-benzodiazol-2-yl)pyridin-4-yl]piperidin-4-amine]
< 10	a (above 50)	COc1ncc(-c2cc(C)cc(F)c2)c(N2CCC(N)CC2)c1-c1nc2cc(F)cc(F)c2[nH]1 [Compound 2-5, 1-[3-(5,7-difluoro-1H-1,3-benzodiazol-2-yl)-5-(3-fluoro-5-methylphenyl)-2-methoxypyridin-4-yl]piperidin-4-amine]
